In US8575306B2, “Target and method for inhibition of bacterial RNA polymerase” (Rutgers, The State University of New Jersey, priority 2002, dated 2013):
Where a SMILES comes first, the peptide text is derived from it.

Tests used:
[1] = test system: Gram-negative bacterial species, including E. coli; settings: Salomon and Farias (1992); cited from earlier work
RNAP holoenzyme = molecular target: T1, RNAP holoenzyme (Escherichia coli, UniProt P0A8T7); experiment: Fluorescence-detected abortive initiation assays; type: biochemical; settings: iterative tri- and tetranucleotide synthesis
T1 construct: RNAP holoenzyme was prepared from, strain XE54/pREII-NHα; made in house; host or cells: E. coli strain XE54/pREII-NHα
Method: Following 15 min at 37° C. 0.5 μl mg/ml heparin was added, and, following a further 2 min at 37° C., 1 μl of 0.25-5 mM (y-AmNS)UTP (Molecular Probes, Inc.) was added, and reaction mixtures were transferred to sub-micro fluorometer cuvettes (Starna Cells, Inc.). Following 2 min at 37° C., RNA synthesis was initiated by addition of 2.5 μl 10 mM ApA, and fluorescence emission intensity was monitored 5 min at 37° C. [excitation wavelength=360 nm and emission wavelength=500 nm; excitation and emission slit widths=4 nm; QuantaMaster QM1 spectrofluororaeter (PTI, Inc).]. The quantity of UMP incorporated into RINA was determined from the quantity of (γ−AmNS)UTP consumed, which, in turn, was calculated as follows (Schlageck et al. 1979): (γ−AmNS)UTPconsumed=[(γ−AmNS)UTP0](Ft−F0)/(12.4×F0) where (γ−AmNS)UTP0 is the quantity of (γ−AmNS)UTP at time 0, F0 is the fluorescence emission intensity at time 0, and Ft is the fluorescence emission intensity at time t. Data were fit to full-competitive, partial-competitive, full-noncompetitive, partial-noncompetitive, full-uncompetitive, partial-uncompetitive, full-mixed, and partial-mixed models of inhibition as in the preceding section.

[2] = test system: Strain DH5α transformed with a pRL663 derivative (substituted RNAP β′ subunit); experiment: Minimum bacteriocidal concentration (MBC) assays, MccJ25-resistant rpoC mutants; type: cell-based, Escherichia coli; settings: for MBC (minimum bacteriocidal concentration): 2 hr at 37° C.
Method: (RNAP β′ subunit comprises nearly one-half of all residues of RNAP and comprises all residues of the RNAP secondary channel). Mutagenesis using error-prone PCR was performed (Zhou (1991) Nucl. Acids Res. 19, 6052; Zhou et al., (1993) Proc. Natl. Acad. Sci. USA 90, 6081-6085) of five DNA segments spanning the length of a plasmid-borne rpoC gene (Table 1). Overall, 20 mutagenesis reactions were performed, ˜100,000 candidates were analyzed, and 22 independent plasmid-linked MccJ25-resistant mutants were isolated (Table 1). […] Complementation assays indicate that all 22 MccJ25-resistant mutants can complement an rpoC^ts mutant for growth at the non-permissive temperature, confirming that each encodes a β′ derivative functional in transcription—indeed sufficiently functional in transcription to support viability (Table 2, column 4).
A saturation mutagenesis using a set often “doped” oligodeoxyribonucleotide primers, designed to introduce all possible nucleotide substitutions at all positions of all codons for residues that line the RNAP secondary channel was performed (sequences in Table 3; methods essentially as in the following references (Ner et al., (1988) DNA 7, 127-134; Hermes et al., (1989) Gene 84, 143-151; and Niu et al., (1994) J. Mol. Biol. 243, 595-602). In total, 23 mutagenesis reactions were performed, ˜40,000 candidates were analyzed, and 105 independent plasmid-linked MccJ25-resistant mutants were isolated and characterized (Table 4).

T1 sequence (P0A7Z4 whole entry): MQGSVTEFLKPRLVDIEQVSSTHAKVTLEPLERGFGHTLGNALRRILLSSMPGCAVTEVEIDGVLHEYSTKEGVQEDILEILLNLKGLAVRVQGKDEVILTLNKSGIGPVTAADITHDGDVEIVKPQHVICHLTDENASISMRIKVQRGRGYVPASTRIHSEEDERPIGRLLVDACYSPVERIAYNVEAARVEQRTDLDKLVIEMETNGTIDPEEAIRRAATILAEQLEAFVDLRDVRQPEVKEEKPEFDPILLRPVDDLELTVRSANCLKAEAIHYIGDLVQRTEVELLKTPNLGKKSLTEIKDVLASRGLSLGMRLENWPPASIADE
T1 sequence (P0A800 whole entry, further chain): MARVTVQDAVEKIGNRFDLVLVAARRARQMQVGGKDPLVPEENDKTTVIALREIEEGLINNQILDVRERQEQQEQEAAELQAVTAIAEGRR
T1 sequence (P00579 whole entry, further chain): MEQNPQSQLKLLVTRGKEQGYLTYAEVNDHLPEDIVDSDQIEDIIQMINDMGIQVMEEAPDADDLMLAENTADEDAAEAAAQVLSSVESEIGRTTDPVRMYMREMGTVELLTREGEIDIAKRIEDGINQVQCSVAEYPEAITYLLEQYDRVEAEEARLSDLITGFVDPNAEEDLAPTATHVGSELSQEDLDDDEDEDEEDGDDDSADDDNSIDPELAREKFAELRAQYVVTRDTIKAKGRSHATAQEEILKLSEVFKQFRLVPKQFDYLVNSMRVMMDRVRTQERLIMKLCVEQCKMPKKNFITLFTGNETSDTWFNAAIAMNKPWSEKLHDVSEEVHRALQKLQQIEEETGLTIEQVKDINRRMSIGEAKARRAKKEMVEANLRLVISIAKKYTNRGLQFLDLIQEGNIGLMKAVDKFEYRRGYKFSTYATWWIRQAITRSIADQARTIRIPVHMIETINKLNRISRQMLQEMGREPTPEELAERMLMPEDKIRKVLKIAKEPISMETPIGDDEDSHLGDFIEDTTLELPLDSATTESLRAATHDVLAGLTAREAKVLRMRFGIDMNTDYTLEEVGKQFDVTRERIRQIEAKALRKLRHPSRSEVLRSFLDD
T1 sequence (P0A8T7 whole entry): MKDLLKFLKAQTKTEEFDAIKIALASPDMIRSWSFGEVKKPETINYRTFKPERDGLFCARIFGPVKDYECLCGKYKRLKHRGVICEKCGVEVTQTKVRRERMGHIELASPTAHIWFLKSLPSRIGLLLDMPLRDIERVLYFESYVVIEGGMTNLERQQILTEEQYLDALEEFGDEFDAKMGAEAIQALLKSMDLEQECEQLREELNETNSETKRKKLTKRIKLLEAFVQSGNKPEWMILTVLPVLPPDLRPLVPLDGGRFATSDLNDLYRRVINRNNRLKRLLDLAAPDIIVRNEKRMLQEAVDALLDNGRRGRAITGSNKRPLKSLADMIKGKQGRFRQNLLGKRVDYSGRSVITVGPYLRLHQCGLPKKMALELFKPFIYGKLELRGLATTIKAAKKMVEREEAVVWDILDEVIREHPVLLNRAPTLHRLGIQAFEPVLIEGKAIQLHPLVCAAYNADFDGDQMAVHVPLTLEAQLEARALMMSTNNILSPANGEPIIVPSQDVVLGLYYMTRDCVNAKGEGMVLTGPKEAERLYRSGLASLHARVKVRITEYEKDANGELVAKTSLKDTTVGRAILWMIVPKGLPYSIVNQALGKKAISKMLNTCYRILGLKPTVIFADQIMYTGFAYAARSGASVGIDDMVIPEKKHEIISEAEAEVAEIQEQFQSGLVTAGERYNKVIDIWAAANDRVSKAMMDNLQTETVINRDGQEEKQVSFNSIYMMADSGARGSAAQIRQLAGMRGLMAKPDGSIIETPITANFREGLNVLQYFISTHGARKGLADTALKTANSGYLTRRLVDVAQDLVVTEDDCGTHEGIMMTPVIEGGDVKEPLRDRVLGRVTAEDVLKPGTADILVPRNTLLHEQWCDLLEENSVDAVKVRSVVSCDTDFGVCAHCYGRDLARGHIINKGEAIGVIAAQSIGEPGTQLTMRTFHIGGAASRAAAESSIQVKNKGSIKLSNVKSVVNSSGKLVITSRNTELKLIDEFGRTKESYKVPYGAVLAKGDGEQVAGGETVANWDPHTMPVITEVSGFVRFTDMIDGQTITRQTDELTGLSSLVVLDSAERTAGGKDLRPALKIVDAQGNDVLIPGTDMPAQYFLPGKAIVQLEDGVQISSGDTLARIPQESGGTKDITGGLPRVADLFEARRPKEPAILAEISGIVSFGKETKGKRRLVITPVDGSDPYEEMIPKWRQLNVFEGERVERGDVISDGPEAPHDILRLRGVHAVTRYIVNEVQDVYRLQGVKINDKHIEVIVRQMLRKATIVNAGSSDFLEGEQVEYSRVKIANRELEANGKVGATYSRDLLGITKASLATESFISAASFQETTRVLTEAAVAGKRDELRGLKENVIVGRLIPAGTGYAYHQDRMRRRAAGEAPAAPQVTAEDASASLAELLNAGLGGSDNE
T1 sequence (P0A8V2 whole entry, further chain): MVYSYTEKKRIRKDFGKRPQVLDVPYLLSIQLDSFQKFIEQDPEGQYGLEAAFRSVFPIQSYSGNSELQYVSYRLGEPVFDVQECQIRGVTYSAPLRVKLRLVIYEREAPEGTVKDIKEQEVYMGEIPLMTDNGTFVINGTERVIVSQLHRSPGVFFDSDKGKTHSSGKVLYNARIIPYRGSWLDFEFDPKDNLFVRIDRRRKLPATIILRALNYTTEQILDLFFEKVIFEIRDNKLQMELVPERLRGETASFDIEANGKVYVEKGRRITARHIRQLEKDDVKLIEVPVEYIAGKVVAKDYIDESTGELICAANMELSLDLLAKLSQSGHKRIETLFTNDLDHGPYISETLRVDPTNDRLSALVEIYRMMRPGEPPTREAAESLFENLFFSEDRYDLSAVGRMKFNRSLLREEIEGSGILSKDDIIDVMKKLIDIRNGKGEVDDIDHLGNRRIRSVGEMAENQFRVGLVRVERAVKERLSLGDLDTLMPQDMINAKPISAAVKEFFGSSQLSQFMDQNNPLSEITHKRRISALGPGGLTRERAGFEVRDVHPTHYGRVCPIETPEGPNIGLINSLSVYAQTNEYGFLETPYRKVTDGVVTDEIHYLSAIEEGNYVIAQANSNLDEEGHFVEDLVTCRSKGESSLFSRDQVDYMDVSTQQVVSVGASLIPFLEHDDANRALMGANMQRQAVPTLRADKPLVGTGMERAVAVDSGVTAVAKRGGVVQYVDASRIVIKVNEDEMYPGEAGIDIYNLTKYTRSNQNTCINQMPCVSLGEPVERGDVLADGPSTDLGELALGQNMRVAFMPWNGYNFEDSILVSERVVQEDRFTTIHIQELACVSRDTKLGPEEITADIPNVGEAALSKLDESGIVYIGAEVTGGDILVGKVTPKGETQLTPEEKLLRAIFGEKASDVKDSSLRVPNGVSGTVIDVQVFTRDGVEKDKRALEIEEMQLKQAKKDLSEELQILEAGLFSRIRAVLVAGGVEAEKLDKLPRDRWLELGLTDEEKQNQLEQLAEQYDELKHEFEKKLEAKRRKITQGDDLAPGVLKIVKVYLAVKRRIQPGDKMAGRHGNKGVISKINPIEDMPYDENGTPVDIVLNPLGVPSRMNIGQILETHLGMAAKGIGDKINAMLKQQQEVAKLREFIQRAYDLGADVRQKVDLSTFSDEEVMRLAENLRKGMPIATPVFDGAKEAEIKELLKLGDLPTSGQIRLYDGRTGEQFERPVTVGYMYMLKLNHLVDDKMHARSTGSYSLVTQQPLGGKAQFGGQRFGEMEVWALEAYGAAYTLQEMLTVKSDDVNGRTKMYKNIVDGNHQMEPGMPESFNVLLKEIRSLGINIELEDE

## CC[C@H](C)[C@H](NC(=O)CNC(=O)[C@@H](NC(=O)[C@H](Cc1ccccc1)NC(=O)[C@H](Cc1ccc(O)cc1)NC(=O)[C@@H]1CCC(=O)NCC(=O)NCC(=O)N[C@@H](C)C(=O)NCC(=O)N[C@@H](Cc2c[nH]cn2)C(=O)N[C@@H](C(C)C)C(=O)N2CCC[C@H]2C(=O)N1)C(C)C)C(=O)NCC(=O)N[C@H](C(=O)N1CCC[C@H]1C(=O)N[C@H](C(=O)N[C@@H](CO)C(=O)N[C@@H](Cc1ccccc1)C(=O)N[C@@H](Cc1ccc(O)cc1)C(=O)NCC(=O)O)[C@@H](C)CC)[C@@H](C)O [MccJ25] (HELM PEPTIDE1{G.G.A.G.H.V.P.E.Y.F.V.G.I.G.T.P.I.S.F.Y.G}$PEPTIDE1,PEPTIDE1,1:R1-8:R3$$$V2.0)
[1]
  bacteriocidal activity: exhibits bacteriocidal activity
RNAP holoenzyme
  mode of inhibition: partial-competitive
[2]; 18 of 22 MccJ25-resistant mutants from random mutagenesis
  increase in MBC: ≥ 50 fold
[2]; all 22 MccJ25-resistant mutants from random mutagenesis
  increase in MBC: ≥ 50 fold
[2]; β′ 428 Thr->Asn
  MBC (minimum bacteriocidal concentration): 0.5 mg/mi
[2]; β′ 428 Thr->Ile
  MBC (minimum bacteriocidal concentration): 0.5 mg/mi
[2]; β′ 429 Leu->Gln
  MBC (minimum bacteriocidal concentration): 0.5 mg/mi
[2]; β′ 430 His->Tyr
  MBC (minimum bacteriocidal concentration): 0.5 mg/mi
[2]; β′ 498 Pro->Gln
  MBC (minimum bacteriocidal concentration): 1 mg/mi
[2]; β′ 498 Pro->Leu
  MBC (minimum bacteriocidal concentration): 1 mg/mi
[2]; β′ 503 Ser->Pro
  MBC (minimum bacteriocidal concentration): 0.5 mg/mi
[2]; β′ 503 Ser->Tyr
  MBC (minimum bacteriocidal concentration): 0.5 mg/mi
[2]; β′ 504 Gln->Arg
  MBC (minimum bacteriocidal concentration): 0.5 mg/mi
[2]; β′ 504 Gln->Glu
  MBC (minimum bacteriocidal concentration): 0.5 mg/mi
[2]; β′ 508 Leu->Val
  MBC (minimum bacteriocidal concentration): 0.05 mg/mi
[2]; β′ 680 Asn->Lys
  MBC (minimum bacteriocidal concentration): 0.5 mg/mi
[2]; β′ 684 Asp->Ala
  MBC (minimum bacteriocidal concentration): 1 mg/mi
[2]; β′ 684 Asp->Glu
  MBC (minimum bacteriocidal concentration): 0.5 mg/mi
[2]; β′ 684 Asp->Tyr
  MBC (minimum bacteriocidal concentration): 0.5 mg/mi
[2]; β′ 684 Asp->Vai
  MBC (minimum bacteriocidal concentration): 0.5 mg/mi
[2]; β′ 732 Gly->Asp
  MBC (minimum bacteriocidal concentration): 0.1 mg/mi
[2]; β′ 733 Ser->Phe
  MBC (minimum bacteriocidal concentration): 0.1 mg/mi
[2]; β′ 733 Ser->Tyr
  MBC (minimum bacteriocidal concentration): 0.1 mg/mi
[2]; β′ 733 Ser->Val
  MBC (minimum bacteriocidal concentration): 0.5 mg/mi
[2]; β′ 735 Ala->Δ
  MBC (minimum bacteriocidal concentration): 1 mg/mi
[2]; β′ 736 Gln->Pro
  MBC (minimum bacteriocidal concentration): 0.5 mg/mi
[2]; β′ 738 Arg->Leu
  MBC (minimum bacteriocidal concentration): 0.05 mg/mi
[2]; β′ 744 Arg->His
  MBC (minimum bacteriocidal concentration): 0.05 mg/mi
[2]; β′ 744 Arg->Pro
  MBC (minimum bacteriocidal concentration): 0.05 mg/mi
[2]; β′ 748 Ala->Pro
  MBC (minimum bacteriocidal concentration): 0.1 mg/mi
[2]; β′ 775 Ser->Cys
  MBC (minimum bacteriocidal concentration): 0.5 mg/mi
[2]; β′ 776 Thr->Ile
  MBC (minimum bacteriocidal concentration): 0.5 mg/mi
[2]; β′ 777 His->Pro
  MBC (minimum bacteriocidal concentration): 0.5 mg/mi
[2]; β′ 777 His->Tyr
  MBC (minimum bacteriocidal concentration): 1 mg/mi
[2]; β′ 779 Ala->Gly
  MBC (minimum bacteriocidal concentration): 0.5 mg/mi
[2]; β′ 779 Ala->Pro
  MBC (minimum bacteriocidal concentration): 0.5 mg/mi
[2]; β′ 779 Ala->Thr
  MBC (minimum bacteriocidal concentration): 1 mg/mi
[2]; β′ 780 Arg->Cys
  MBC (minimum bacteriocidal concentration): 1 mg/mi
[2]; β′ 782 Gly->Ala
  MBC (minimum bacteriocidal concentration): 1 mg/mi
[2]; β′ 783 Leu->Pro
  MBC (minimum bacteriocidal concentration): 0.1 mg/mi
[2]; β′ 784 Ala->Glu
  MBC (minimum bacteriocidal concentration): 0.5 mg/mi
[2]; β′ 785 Asp->Gly
  MBC (minimum bacteriocidal concentration): 0.5 mg/mi
[2]; β′ 786 Thr->Ala
  MBC (minimum bacteriocidal concentration): 0.5 mg/mi
[2]; β′ 786 Thr->Ile
  MBC (minimum bacteriocidal concentration): 0.5 mg/mi
[2]; β′ 788 Leu->Met
  MBC (minimum bacteriocidal concentration): 1 mg/mi
[2]; β′ 789 Lys->Arg
  MBC (minimum bacteriocidal concentration): 0.5 mg/mi
[2]; β′ 789 Lys->Asn
  MBC (minimum bacteriocidal concentration): 1 mg/mi
[2]; β′ 789 Lys->Gln
  MBC (minimum bacteriocidal concentration): 1 mg/mi
[2]; β′ 790 Thr->Ala
  MBC (minimum bacteriocidal concentration): 1 mg/mi
[2]; β′ 790 Thr->Asn
  MBC (minimum bacteriocidal concentration): 0.5 mg/mi
[2]; β′ 790 Thr->Ile
  MBC (minimum bacteriocidal concentration): 1 mg/mi
[2]; β′ 790 Thr->Ser
  MBC (minimum bacteriocidal concentration): 0.5 mg/mi
[2]; β′ 922 Cys->Tyr
  MBC (minimum bacteriocidal concentration): 0.5 mg/mi
[2]; β′ 926 Pro->Ser
  MBC (minimum bacteriocidal concentration): 0.5 mg/mi
[2]; β′ 927 Gly->Cys
  MBC (minimum bacteriocidal concentration): 1 mg/mi
[2]; β′ 927 Gly->Ser
  MBC (minimum bacteriocidal concentration): 1 mg/mi
[2]; β′ 930 Leu->Met
  MBC (minimum bacteriocidal concentration): 1 mg/mi
[2]; β′ 931 Thr->Ala
  MBC (minimum bacteriocidal concentration): 1 mg/mi
[2]; β′ 931 Thr->Ile
  MBC (minimum bacteriocidal concentration): 1 mg/mi
[2]; β′ 932 Met->Ile
  MBC (minimum bacteriocidal concentration): 1 mg/mi
[2]; β′ 933 Arg->Cys
  MBC (minimum bacteriocidal concentration): 1 mg/mi
[2]; β′ 1136 Gly->Ala
  MBC (minimum bacteriocidal concentration): 0.5 mg/mi
[2]; β′ 1136 Gly->Cys
  MBC (minimum bacteriocidal concentration): 1 mg/mi
[2]; β′ 1137 Gly->Aia
  MBC (minimum bacteriocidal concentration): 0.5 mg/mi
[2]; β′ 1137 Gly->Arg
  MBC (minimum bacteriocidal concentration): 1 mg/mi
[2]; β′ 1240 Val->Glu
  MBC (minimum bacteriocidal concentration): 0.5 mg/mi
[2]; β′ 1241 Tyr->Cys
  MBC (minimum bacteriocidal concentration): 0.1 mg/mi
[2]; β′ 1241 Tyr->His
  MBC (minimum bacteriocidal concentration): 0.1 mg/mi
[2]; β′ 1241 Tyr->Ser
  MBC (minimum bacteriocidal concentration): 0.1 mg/mi
[2]; β′ 1244 Gln->Glu
  MBC (minimum bacteriocidal concentration): 0.1 mg/mi
[2]; β′ 1244 Gln->Leu
  MBC (minimum bacteriocidal concentration): 0.5 mg/mi
[2]; β′ 1244 Gln->Pro
  MBC (minimum bacteriocidal concentration): 0.1 mg/mi
[2]; β′ 1247 Lys->Gln
  MBC (minimum bacteriocidal concentration): 0.1 mg/mi
[2]; β′ 1247 Lys->Glu
  MBC (minimum bacteriocidal concentration): 0.1 mg/mi
[2]; β′ 1248 lle->Ser
  MBC (minimum bacteriocidal concentration): 0.1 mg/mi
[2]; β′ multiple-substitution mutant 493 Pro->Thr, 498 Pro->Thr
  MBC (minimum bacteriocidal concentration): 0.1 mg/mi
[2]; β′ multiple-substitution mutant 732 Gly->Asp, 733 Ser->Ala
  MBC (minimum bacteriocidal concentration): 0.1 mg/mi
[2]; β′ multiple-substitution mutant 732 Gly->Asp, 735 Gly->Thr
  MBC (minimum bacteriocidal concentration): 0.5 mg/mi
[2]; β′ multiple-substitution mutant 733 Ser->Val, 734 Ala->Gly
  MBC (minimum bacteriocidal concentration): 0.1 mg/mi
[2]; β′ multiple-substitution mutant 777 His->Ser, 778 Gly->Ala
  MBC (minimum bacteriocidal concentration): 0.5 mg/mi
